Measurements as given in patent publication US20050261221A1, “Compositions and methods for enhanced delivery of compounds via transfection complexes” (priority 2004, published 2005).
Values joined by “and” are separate entries in the source; they are usually repeats but may differ in a detail not shown here. Equal entries are not always repeated. “Also recorded” adds a separate entry of the source.

Experiments:
[1] = system: vascular smooth muscle cells (VSMCs); assay: Transfection of VSMCs with cationic phospholipid (EDOPC)-DNA complexes, β-galactosidase microplate fluorometric assay; type: cell-based, Wistar rats; conditions: for Effect on transfection: 0.001-0.5 μM cytochalasin B for 3 h, then DNA-lipid complexes 3 h
Experimental: Primary vascular smooth muscle cells were obtained by removal of the thoracoabdominal aortas of Wistar rats, which were then stripped of endothelium and adventitia. Medial VSMCs were maintained in Dubecco's Modified Eagle's Medium (DMEM), 20% fetal bovine serum (FBS), 200 units/ml penicillin, 200 μg/ml streptomycin (all Gibco, Gaitherburg, Md.) at 37° C. with 5% CO2. At confluence, the cells were passaged using 0.25 mg/ml Trypsin/EDTA (Clonetics, Walkersville, Md.) and were used at passage 3-10 for these experiments.
The cells were seeded in 96-well plates at 24 h before transfection at densities to give about 80% confluence at the time of transfection. Normally, EDOPC was suspended in D-PBS at 1 mg/ml to form liposomes. Liposomes and plasmid DNA were diluted in serum-free cell culture medium to 60 μg/ml for lipid and to 20 μg/ml for DNA, and liposomes were pipetted into an equal volume of plasmid DNA solution at a 3:1 weight ratio and mixed gently. The resultant DNA-lipid complexes were incubated at room temperature for 15 min and then added to the cells that were either in medium lacking serum or medium containing 20% fetal bovine serum (FBS). At 3 h after addition of DNA-lipid complexes, except as stated otherwise, the cells were washed with PBS and fresh medium containing 20% FBS was added. Generally, the cells were incubated with free drugs in 20% FBS DMEM for the indicated duration, and then, unless otherwise described, the cells were washed with PBS and incubated with DNA-lipid complexes. For experiments involving co-treatment with taxol and colchicine, the cells were first incubated with taxol for 30 min and then colchicine was added to the medium. […] Subsequent steps were same as for the normal lipoplexes.
Cells were assayed for β-galactosidase activity 24 h after transfection with a microplate fluorometric assay, modified by inclusion of a heating step (50° C., 45 min) to inactivate endogenous enzyme activity. Following aspiration of the medium from each well, the cells were washed once with PBS and then lysed by addition of 100 μl lysis buffer (0.03% Triton X-100 in 100 mM HEPES, pH 7.8, containing 1 mM MgSO4, 10 mM KCl). The plates were placed at 50° C. for 45 min and then allowed to cool to room temperature. 10 μl 100 μM FDG (fluorescein di-β-D-galactopyranoside) was added into each well. Fluorescence was measured with a microplate fluorimeter (Model 7620, Cambridge Technology Inc.) after incubation at 37° C. for 3 h. Fluorescence intensity is proportional to β-galactosidase expression; 2000 fluorescence units corresponded approximately to 0.1 milliunit of β-galactosidase. The expression of VSMCs transfected with normal lipoplexes in absence of serum and any pretreatment was ˜0.1 milliunit per well.

[2] = system: nerve growth factor (NGF) mRNA; conditions: reported [39]; cited from earlier work
[3] = cited from earlier work
[4] = 100 μM TLCK in fresh 20% FBS after 3 h lipoplex treatment

COC(=O)Nc1nc2ccc(C(=O)c3cccs3)cc2[nH]1 [Nocodazole, nocodazole]
Fold increase of transfection means ± S.D. ([1]; optimal conditions: 50 μM free drug, 3 h pretreatment, 20% FBS): 14 ± 2.0 fold | Fold increase of transfection means ± S.D. ([1]; optimal conditions: 50 μM free drug, 3 h pretreatment, 20% FBS, listed as nocodazole): 14 fold | Fold increase of transfection means ± S.D. ([1]; optimal conditions: 50 μM free drug, 3 h pretreatment, No serum): 31 ± 5.0 fold | Fold increase of transfection means ± S.D. ([1]; optimal conditions: 50 μM free drug, 3 h pretreatment, No serum, listed as nocodazole): 31 fold | Effect on the level of NGF mRNA [2]: increase

S=C(S)N1CCCC1 [PDTC, pyrrolidinedithiocarbamate]
inhibition at 10 µM ([1]; Rattus norvegicus, VSMC, read-out: Reduction of transfection with VB-lipoplexes (inhibition of vinblastine stimulation), 10 μM PDTC in fresh 20% FBS after 3 h lipoplex treatment): 85% | Transfection stimulation by VB-lipoplexes ([1]; after treatment with 10 μM PDTC): 5 ×

Cc1ccc(S(=O)(=O)N[C@@H](CCCCN)C(=O)CCl)cc1 [TLCK, Nα-p-tosyl-L-lysine chloromethyl ketone]
Decrease of transfection of VB-lipoplexes (inhibition of vinblastine stimulation) [1, 4]: 66% | Decrease of transfection of normal lipoplexes [1, 4]: 50%

CC[C@]1(O)C[C@H]2CN(CCc3c([nH]c4ccccc34)[C@@](C(=O)OC)(c3cc4c(cc3OC)N(C=O)[C@H]3[C@@](O)(C(=O)OC)[C@H](OC(C)=O)[C@]5(CC)C=CCN6CC[C@]43[C@@H]65)C2)C1 [Vincristine, vincristine]
Fold increase of transfection means ± S.D. ([1]; optimal conditions: 1/50 (w/w) VC/lipid incorporated in lipid, 20% FBS during 3 h incubation with complexes): 39 ± 6.9 fold | Fold increase of transfection means ± S.D. ([1]; optimal conditions: 1/50 (w/w) VC/lipid incorporated in lipid, 20% FBS during 3 h incubation with complexes, listed as vincristine): 39 fold | Fold increase of transfection means ± S.D. ([1]; optimal conditions: 1/50 (w/w) VC/lipid incorporated in lipid, No serum during 3 h incubation with complexes): 25 ± 5.7 fold | Fold increase of transfection means ± S.D. ([1]; optimal conditions: 1/50 (w/w) VC/lipid incorporated in lipid, No serum during 3 h incubation with complexes, listed as vincristine): 25 fold

COc1cc2c(c(OC)c1OC)-c1ccc(OC)c(=O)cc1[C@@H](NC(C)=O)CC2 [colchicine, Colchicine]
Effect on transfection when added to cells simultaneously with lipoplexes ([1]; 0.05 μg/ml colchicine, simultaneous with lipoplexes, absence of serum): increased marginally | Effect on expression when added to cells simultaneously with lipoplexes ([1]; free colchicine added simultaneously with lipoplexes): not noticeably stimulated; also recorded: no stimulation | Fold increase of transfection (β-galactosidase expression) ([1]; pretreatment with 8 μg/ml free colchicine 3 h, 20% FBS): ~23 fold and 24 fold | Fold increase of transfection (β-galactosidase expression) ([1]; pretreatment with 8.0 μg/ml free colchicine 3 h, absence of serum): ~23 fold | Effect on the level of NGF mRNA [2]: increase

C=C1[C@@H](C)[C@H]2[C@H](Cc3ccccc3)NC(=O)[C@]23OC(=O)/C=C/[C@H](O)CCC[C@@H](C)C/C=C/[C@H]3[C@@H]1O [cytochalasin B]
Effect on transfection [1]: No effect | Effect on transfection ([1]; listed as Cytochalasin B): no effect | Effect on the level of NGF mRNA [2]: does not increase

CC[C@@]1([C@@H]2O[C@@H]([C@H]3O[C@@](O)(CO)[C@H](C)C[C@@H]3C)C[C@@H]2C)CC[C@H]([C@]2(C)CC[C@]3(C[C@H](O)[C@@H](C)[C@@H]([C@@H](C)[C@@H](OC)[C@H](C)C(=O)O)O3)O2)O1 [monensin]
Fold effect on transfection relative to no pretreatment ([1]; 1 μM monensin for 15 min, then normal DNA-lipid complexes (FIG. 6)): 9.5 fold

COc1cc([C@@H]2c3cc4c(cc3[C@H](O)[C@H]3COC(=O)[C@H]23)OCO4)cc(OC)c1OC [podophyllotoxin]
Fold increase of transfection means ± S.D. ([1]; optimal conditions: 20 μM free drug, 3 h pretreatment, 20% FBS): 14 fold and 14 ± 5.8 fold | Fold increase of transfection means ± S.D. ([1]; optimal conditions: 20 μM free drug, 3 h pretreatment, No serum): 26 fold and 26 ± 4.5 fold

CC(=O)O[C@H]1C(=O)[C@@]2(C)[C@H]([C@H](OC(=O)c3ccccc3)[C@]3(O)C[C@H](OC(=O)[C@H](O)[C@@H](NC(=O)c4ccccc4)c4ccccc4)C(C)=C1C3(C)C)[C@]1(OC(C)=O)CO[C@@H]1C[C@@H]2O [taxol]
Effect on the stimulation of transfection by colchicine ([1]; 4 μM taxol 30 min, then 0.8 μg/ml colchicine added): blocked | Effect on transfection efficiency, taxol alone ([1]; pretreatment with 4 μM taxol 3 h): no effect | Effect on the stimulation of VB-lipoplexes ([1]; pretreatment with taxol): blocked | Effect on colchicine's increase of NGF mRNA [2]: suppresses

CC[C@]1(O)C[C@@H]2CN(CCc3c([nH]c4ccccc34)[C@@](C(=O)OC)(c3cc4c(cc3OC)N(C)[C@H]3[C@@](O)(C(=O)OC)[C@H](OC(C)=O)[C@]5(CC)C=CCN6CC[C@]43[C@@H]65)C2)C1 [vinblastine]
Stimulation of transfection of SMGA-β-Gal plasmid (smooth muscle γ-actin gene promoter) ([1]; CMV-IEP-β-Gal replaced with SMGA-β-Gal, preliminary result): not stimulated | Maximal stimulation of transgene expression ([1]; vinblastine incorporated into the lipoplexes): ~30 fold | Solubility in chloroform ([3]; chloroform): soluble | Solubility in water ([3]; water): essentially insoluble | Effect on the level of NGF mRNA [2]: increase
